Experiments:
[1] = tested on: mouse myeloma cell line [GS-NSO]; experiment: Growth of GS-NSO myeloma cells in protein-free LS1 medium, shake flasks; assay type: cell-based; conditions: 5 μM tropolone, FIG. 5
Protocol: The LS1 medium additionally contained 2-hydroxypropyl-β-cyclodextrin [HPB; 1.2 g/l] complexed with cholesterol and fatty acids [prepared before addition to LS1 by dissolving HPB ([…]) in water and adding to an equal volume of a supplement containing cholesterol and the fatty acids previously dissolved in absolute alcohol, then agitating for 3 hours prior to centrifugation and filtering].

[2] = tested on: mouse hybridoma cell line; experiment: Growth of mouse hybridoma cells in transferrin-free medium with iron chelators, static 24-well culture, 3 days; assay type: cell-based
Protocol: A mouse hybridoma cell line previously subcultured in a serum-free medium containing 1 μg/ml human transferrin was centrifuged and resuspended in transferrin-free medium twice. […] 100×concentrates of the iron chelators to be tested (8-hydroxyquinoline, tropolone, mimosine, maltol or picolinic acid) were prepared in water and filter sterilised. 10 μl of each iron chelator was dispersed into wells of a 24 well costar plate and then 1 ml of cell suspension added. […] Control wells contained either 10 μl water (negative control) or 10 μl of 100 μg/ml human transferrin solution (positive control). Plates were incubated for 3 days in a humidified incubator under a 5% CO2—95% air atmosphere at 36.5° C. under static conditions. After 3 days samples of dispersed cell suspensions from individual wells were analysed using a Coulter Multisizer to determine cell concentration.

animal cells = experiment: Support of growth in agitated animal cell culture at low iron concentration; assay type: cell-based
[3] = tested on: recombinant GS-myeloma cell lines [mouse NS/O]; experiment: Growth and productivity of recombinant GS-myeloma NS/O cell lines in suspension culture; assay type: cell-based; conditions: for PEAK CELL DENSITY: 0.2 mg/l ferric ammonium citrate with 5 μM tropolone or 1 mg/l transferrin
Text: The efficacy of using tropolone as a transferrin replacement was further investigated using recombinant GS-myeloma cell lines [mouse NS/O] expressing humanised antibodies using the glutamine synthetase (GS) expression system, [Bebbington et al., Bio/Technology, 10, 169-175; European Patent Specification No. 256055].

[4] = tested on: mouse hybridoma cell line; conditions: increasing concentrations up to 10 mg/l, transferrin-free medium, 3 days, FIG. 2A
Protocol: A mouse hybridoma cell line, previously subcultured in serum free medium containing human transferrin, was centrifuged and resuspended at 1.5×10^5 cells/ml in either transferrin-free or transferrin-containing serum-free medium. […] The flasks were gassed in 5% CO2—95% air atmosphere, sealed and incubated either static or on an orbital reciprocal shaking platform (120 rpm) at 36.5° C. for 3 days. Samples were then removed and cell concentration was determined by haemocytometry.

[5] = tested on: mouse hybridoma cell line; conditions: 5 μM tropolone
Protocol: Flasks were gassed with an atmosphere of 5% CO2—95% air and incubated on an orbital shaking platform (120 rpm) at 36.5° C. for 3 days.
After 3 days samples were withdrawn from flasks and cell concentration determined using a Coulter multisizer.

[6] = 5 μM tropolone vs 1 mg/l transferrin, 0.2 mg/l ferric ammonium citrate, three cell lines

2-hydroxypropyl-β-cyclodextrin [reference compound]
performance as carrier for cholesterol and fatty acids (cell growth) ([1]; 1.2 g/l HPB in LS1 medium vs bovine serum albumin): an effective replacement for bovine serum albumin

CC(=O)CC(C)=O [acetylacetone, reference compound]
support of cell growth (cell concentration after 3 days) ([2]; 100 μM, 0.1 mg/l ferric ammonium citrate, FIG. 1B): much less effective

O=C(O)CC(O)(CC(=O)O)C(=O)O [citrate]
support of growth in agitated cell culture (animal cells): has failed

O=C(O)[C@H](O)[C@@H](O)[C@H](O)[C@H](O)CO [gluconate]
support of growth in agitated cell culture (animal cells): has failed

O=C(O)c1ccccn1 [picolinic acid, reference compound]
support of cell growth (cell concentration after 3 days) ([2]; 50 μM, 0.1 mg/l ferric ammonium citrate, FIG. 1B): much less effective

O=c1cccccc1O [tropolone, 2-hydroxy-2,4,6-cycloheptatrien-1-one]
support of cell growth (cell concentration after 3 days) ([2]; 3 μM tropolone, 0.36 μM iron (0.1 mg/l ferric ammonium citrate), transferrin-free, FIG. 1A): as effective as 1 μg/ml of human transferrin at supporting cell growth
support of cell growth (cell concentration after 3 days) ([2]; 5 μM, 0.1 mg/l ferric ammonium citrate, FIG. 1B): effective at supporting cell growth
growth rates compared with transferrin medium [3, 6]: similar
peak viable cell concentration compared with transferrin medium [3, 6]: similar
PEAK CELL DENSITY ([3]; Cell line A): 1.51e+06 mL⁻¹
PEAK CELL DENSITY ([3]; Cell line B): 1.49e+06 mL⁻¹
PEAK CELL DENSITY ([3]; Cell line C): 3.17e+06 mL⁻¹
support of cell growth ([1]; 0.2 mg/l ferric ammonium citrate, LS1 medium with HPB or BSA carrier): able to support the growth of both cultures
support of growth in agitated cell culture (animal cells): can support growth

TRANSFERRIN: human transferrin, natural iron-chelating protein used as positive control
PEAK CELL DENSITY ([3]; Cell line A): 1.3e+06 mL⁻¹
PEAK CELL DENSITY ([3]; Cell line B): 1.46e+06 mL⁻¹
PEAK CELL DENSITY ([3]; Cell line C): 2.62e+06 mL⁻¹

ferric ammonium citrate
effect on cell concentration in static culture [4]: support increasing cell concentrations
growth yield ([5]; data not shown): 3.3×10^7 cells/μg ferric ammonium citrate
concentration range giving maximum biomass ([5]; shaken 120 rpm, 3 days): 0.075 to 1 mg/L
time to death of myeloma cells (failed to thrive) ([3]; 0.2 mg/l ferric ammonium citrate in the absence of either tropolone or transferrin): ≤ 48 h
